In patent US20090155881A1, “CELL-FREE PROTEIN SYNTHESIS METHOD AND CELL-FREE PROTEIN SYNTHESIS REACTION SOLUTION USING ADENOSINE 3',5'-BISPHOSPHATE” (priority 2007, published 2009):

System: mRNA
Assay: mRNA degradation suppressing effect in the cell-free protein synthesis reaction solution (Transdirect insect cell); remaining mRNA detected by agarose electrophoresis and EtBr staining
Assay type: biochemical, Spodoptera frugiperda
Settings: for degradation suppressing effect: after 240 minutes
Description: Using Transdirect insect cell (SHIMADZU CORPORATION), each of the following reaction solutions was prepared in a scale of 50 μL. Transdirect insect cell is a cell-free protein synthesis reaction solution containing an extract from Sf21, and contains a potassium salt, a magnesium salt, adenosine triphosphate, guanosine triphosphate, creatine phosphate, creatine kinase, an amino acid component, a tRNA, a foreign mRNA, and a buffer as ingredients other than the extract derived from Sf21.
As the RNase inhibitor, an RNase inhibitor derived from a human placenta (TAKARA BIO) was used, and as the pAp, Adenosine 3′,5′-diphosphate sodium salt (SIGMA-ALDRICH) was used, and prepared as an aqueous solution of 100 mM. Each reaction solution was subjected to a translation reaction at 25° C.
For each reaction solution, reaction solutions after 0, 60, and 120 minutes from starting of a translation reaction were recovered. 10 μL of the recovered reaction solution was collected into 20 μL of TRIzol LS Reagent (Invitrogen), and the whole RNA was extracted. The extracted RNA was dissolved in 10 μL of pure water.
To each solution of extracted RNA, 4 μL of a loading buffer (Wako Pure Chemical Industries) was added, and the total was subjected to electrophoresis (a TAE buffer, 1% agarose gel). The RNA separated by electrophoresis was detected by EtBr (ethidium bromide) staining.
By the same steps as Steps 1 to 3 of Example 1, a translation reaction was conducted for the following reaction solutions.
As for Reaction Solution 6, pAp was added before the reaction so that the final concentration was 5 mM, and after 60 minutes from starting of the reaction, 2.5 μL of a 100 mM pAp aqueous solution prepared in step 3 was added. As a result, the pAp concentration of supplemented pAp excluding the pAp that was present from the initial stage of the reaction was 5 mM.
Steps 4 and 5 as same as those in Example 1 were conducted except that for each reaction solution, the reaction solution was recovered after 0, 120, 180, and 240 minutes from starting of the translation reaction.
In Reaction Solutions 7 and 8, a 4M aqueous LiCl solution was prepared for stock, and using the stock solution, the final concentration in the reaction solution was adjusted to 50 mM.
Steps 4 and 5 were conducted in the same manner as in Example 1 except that for each reaction solution, the reaction solution was recovered after 0, 180, and 240 minutes from starting of the translation reaction.

## Nc1ncnc2c1ncn2[C@@H]1O[C@H](COP(=O)(O)O)[C@@H](OP(=O)(O)O)[C@H]1O [pAp, adenosine 3′,5′-bisphosphate]
5 mM pAp plus supplementation of 5 mM pAp after 60 minutes (Reaction Solution 6)
  degradation suppressing effect: sustained
5 mM pAp, supplementation not conducted (Reaction Solution 4), after 180 minutes
  RNA degradation suppressing effect: lost with time
10 mM pAp, supplementation not conducted (Reaction Solution 5)
  degradation suppressing effect: sustained
pAp 5 mM alone, no LiCl (lane 4), after 180 minutes
  mRNA remaining (electrophoresis): almost all the mRNA was degraded
pAp final concentration 5 mM, no RNase inhibitor (Reaction Solution 4), reaction times 60 and 120 minutes, 25° C.
  mRNA degradation suppressing effect: apparent degradation suppressing effect

## [Cl-].[Li+] [LiCl, lithium chloride]
LiCl 50 mM alone, no pAp (lane 7), after 180 minutes
  mRNA remaining (electrophoresis): almost all the mRNA was degraded

B1: RNase inhibitor: RNase inhibitor derived from a human placenta (TAKARA BIO) (protein, UniProt P13489 2-461, looked up)
Ribonuclease inhibitor: SLDIQSLDIQCEELSDARWAELLPLLQQCQVVRLDDCGLTEARCKDISSALRVNPALAELNLRSNELGDVGVHCVLQGLQTPSCKIQKLSLQNCCLTGAGCGVLSSTLRTLPTLQELHLSDNLLGDAGLQLLCEGLLDPQCRLEKLQLEYCSLSAASCEPLASVLRAKPDFKELTVSNNDINEAGVRVLCQGLKDSPCQLEALKLESCGVTSDNCRDLCGIVASKASLRELALGSNKLGDVGMAELCPGLLHPSSRLRTLWIWECGITAKGCGDLCRVLRAKESLKELSLAGNELGDEGARLLCETLLEPGCQLESLWVKSCSFTAACCSHFSSVLAQNRFLLELQISNNRLEDAGVRELCQGLGQPGSVLRVLWLADCDVSDSSCSSLAATLLANHSLRELDLSNNCLGDAGILQLVESVRQPGCLLEQLVLYDIYWSEEMEDRLQALEKDKPSLRVIS
RNase inhibitor final concentration 1 U/μL, no pAp (Reaction Solution 3 vs Reaction Solution 2), 0, 60, 120 minutes
  mRNA degradation suppressing effect: not observed
